Measured values reported in article PMC6257776, “Synthesis and Antitumor Activity of Diterpenylhydroquinone Derivatives of Natural Ent-Labdanes” (Molecules, 2010).

Assays:
[1] = tested on: MDA-MB-231 breast carcinoma cells; assay: SRB cell growth inhibition assay, MDA-MB-231; assay type: cell-based, human; details: for IC50: Homo sapiens, MDA-MB-231 cells, 72 h exposure, SRB, read-out: Cytotoxicity IC50, MDA-MB-231; for cytotoxic bioactivity against MDA-MB-231 (in words): MDA-MB-231 breast carcinoma
Method: (§1) The antitumor cytotoxicity of the compounds was evaluated in vitro against […] different cancer cell lines: PC-3 and DU-145 human prostate cancer, MCF-7 and MDA-MB-231 breast carcinoma and one non-tumoral cell line, dermal human fibroblasts (DHF). A conventional colorimetric assay was set up to estimate the IC50 values, which represent the concentration of a drug that is required for 50% inhibition in vitro after 72 h of continuous exposure to the test compounds. Four serial dilutions (from 12.5 to 100 µM) for each sample were evaluated in triplicate. The results obtained from these assays are shown in Table 1 and the following general observations can be made as a result: the natural ent-labdanes derivatives 3-5 (IC50 > 100) were the least cytotoxic of the series.
(§2) The colorimetric assay using sulforhodamine B (SRB) was realized following an adaptation of the described method by Skehan et al.. Cells were seeded in 96-well microtiter plates, at5 × 10^3 cells per well in aliquots of 100 µL of DMEM/F-12 medium, and they were allowed to attach to the plate surface by growing in drug-free medium for 18 h. Afterward, compounds samples were added in aliquots (dissolved in EtOH/H2O) to achieve a final concentration of 100, 50, 25 12.5 µM. After 72 h exposure, the in vitro cytotoxicity was measured by the SRB dye assay. Cells were fixed by adding cold 50% (wt/vol) trichloroacetic acid (TCA, 25 µL) and incubating for 60 min at 4 °C. Plates were washed with deionized water and dried; SRB solution (0.1% wt/vol in 1% acetic acid, 50 µL) was added to each microtiter well and incubated for 30 min at room temperature. Unbound SRB is removed by washing with 1% acetic acid. Plates were air-dried and bound stain was solubilized with Tris base (100 µL, 10 mM). Optical densities were read on an automated spectrophotometer plate reader at a single wavelength of 540 nm. Values shown are the % viability vs. ctrl + SD, n = four independent experiments in triplicate.

[2] = tested on: DU-145 human prostate cancer cells; assay: SRB cell growth inhibition assay, DU-145; assay type: cell-based; details: DU-145 cells, 72 h exposure, read-out: Cytotoxicity IC50, DU-145
Method: as §1, §2

[3] = tested on: PC-3 human prostate cancer cells; assay: SRB cell growth inhibition assay, PC-3; assay type: cell-based; details: PC-3 cells, 72 h exposure, read-out: Cytotoxicity IC50, PC-3
Method: as §1, §2

[4] = tested on: MCF-7 breast carcinoma cells; assay: SRB cell growth inhibition assay, MCF-7; assay type: cell-based, human; details: for IC50: Homo sapiens, MCF7, MCF-7 cells, 72 h exposure, SRB, read-out: Cytotoxicity IC50, MCF-7; for cytotoxic bioactivity against MCF-7 (in words): MCF-7 breast carcinoma
Method: as §1, §2

[5] = SRB cell growth inhibition assay, DHF (non-tumoral); assay type: cell-based; details: dermal human fibroblasts (DHF), non-tumoral cells, 72 h exposure, read-out: Cytotoxicity IC50, DHF
Method: as §1, §2

Compound	IC50 [1] [µM]	IC50 [2] [µM]	IC50 [3] [µM]	IC50 [4] [µM]	IC50 at 72 h [5] [µM]	cytotoxic bioactivity against MDA-MB-231 (in words) [1]	cytotoxic bioactivity against MCF-7 (in words) [4]
C=C1CC[C@@H]2C(C)(C)C[C@@H](O)C[C@@]2(C)[C@@H]1CC/C(C)=C\CO [Compound 6]	96	96.2	> 100	74.9	> 100		
C=C1CCC2C(C)(C)CC(O)CC2(C)C1CCC(C)=CCc1c(OC)cc(OC)cc1OC (stereo not drawn) [Compound 10, 2β-Hydroxy-15-phenyl-(22,24,26-trimethoxy)-ent-labda-8(17),13(E)-diene]	85.9	> 100	91.2	45.6	> 100	showed cytotoxic bioactivity	showed cytotoxic bioactivity
C=C1CC[C@@H]2C(C)(C)C[C@@H](OC(C)=O)C[C@@]2(C)[C@@H]1CC/C(C)=C/Cc1cc(OC(C)=O)ccc1OC(C)=O [Compound 9, 2β-Acetoxy-15-phenyl-(22,25-acetoxy)-ent-labda-8(17),13(E)-diene]	33.8	62.9	64.3	41.1	72.3	showed cytotoxic bioactivity	showed cytotoxic bioactivity
C=C1CC[C@@H]2C(C)(C)C[C@@H](O)C[C@@]2(C)[C@@H]1CC/C(C)=C/Cc1cc(O)ccc1O [Compound 8]	61.8	37.6	28.2	34	> 100		
C=C1CC[C@@H]2C(C)(C)C[C@@H](OC(C)=O)C[C@@]2(C)[C@@H]1CC/C(C)=C/Cc1cc(O)ccc1O [Compound 7]	75.9	44.6	21.4	23.9	> 100		
C=C1CC[C@@H]2C(C)(C)C[C@@H](OC(C)=O)C[C@@]2(C)[C@@H]1CC/C(C)=C/CO [Compound 3]	> 100	> 100	> 100	> 100	> 100		
C=C1CC[C@@H]2C(C)(C)C[C@@H](OC(C)=O)C[C@@]2(C)[C@@H]1CC/C(C)=C\CO [Compound 5]	> 100	> 100	> 100	> 100	> 100		
C=C1CC[C@@H]2C(C)(C)C[C@@H](O)C[C@@]2(C)[C@@H]1CC/C(C)=C/COC(C)=O [Compound 11, 2β-Hydroxy-15-acetoxy-ent-labda-8(17),13(E)-diene]	> 100	> 100	35.6	86.9	> 100		
C=C1CC[C@@H]2C(C)(C)C[C@@H](O)C[C@@]2(C)[C@@H]1CC/C(C)=C/CO [Compound 4]	> 100	> 100	> 100	90.6	> 100		
